Measured values published in ChEMBL document CHEMBL1201862, “PubChem BioAssay data set” (2004).
Calls of active or inactive are those of the source.

Columns and labels:
[1] = reduced cellular PGC1a acetyl-lysine signal – cell-based, cherry-picked samples, dose response (AID 720514); type: functional;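 also: potency may reflect raised or lowered acetylation signal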
Protein Tat = Protein Tat (Human immunodeficiency virus type 1 group M subtype B (isolate HXB2)(HIV-1), UniProt P04608); type: functional;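 also: tat binding to TAR RNA read out by fluorescence polarization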
[2] = Luminescence-based cell-based high throughput dose response assay to identify activators of the DAF-12 from the parasite S. stercoralis (ssDAF-12).; type: functional
[3] = molecular target: T1, Serine/threonine-protein phosphatase (Candida dubliniensis (strain CD36 / CBS 7987 / NCPF 3949 / NRRLY-17841) (Yeast), UniProt B9W6M3); experiment: blockers of CaCl2-induced CDRE-lacZ signaling – S. cerevisiae, luminescence, secondary, dose response (AID 2388); type: functional, cell-based;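 also: yeast reporter cells carrying a calcineurin-responsive lacZ construct stimulated with calcium chloride; luminescent beta-galactosidase reporter signal in whole cells rather than isolated phosphatase activity; potency for inhibition where a drop in reporter signal means calcineurin blockade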
T1 sequence (B9W6M3 whole entry): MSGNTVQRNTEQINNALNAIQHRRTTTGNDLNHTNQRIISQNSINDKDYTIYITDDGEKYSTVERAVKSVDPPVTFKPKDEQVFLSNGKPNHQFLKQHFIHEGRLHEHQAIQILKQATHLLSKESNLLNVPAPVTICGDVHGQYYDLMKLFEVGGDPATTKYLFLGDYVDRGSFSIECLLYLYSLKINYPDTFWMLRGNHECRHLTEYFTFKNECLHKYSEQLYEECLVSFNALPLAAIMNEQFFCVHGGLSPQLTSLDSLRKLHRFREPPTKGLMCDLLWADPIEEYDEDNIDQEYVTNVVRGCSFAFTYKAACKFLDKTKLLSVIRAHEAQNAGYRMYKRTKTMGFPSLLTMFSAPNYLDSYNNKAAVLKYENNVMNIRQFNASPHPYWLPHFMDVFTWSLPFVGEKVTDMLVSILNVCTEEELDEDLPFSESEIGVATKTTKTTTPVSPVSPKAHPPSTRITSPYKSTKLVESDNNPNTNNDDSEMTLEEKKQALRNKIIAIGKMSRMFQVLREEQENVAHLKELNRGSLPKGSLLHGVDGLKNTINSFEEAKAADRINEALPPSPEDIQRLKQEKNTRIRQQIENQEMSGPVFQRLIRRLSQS

[4] = molecular target: ATP-dependent molecular chaperone HSP82 (Candida albicans (strain WO-1) (Yeast), UniProt C4YTQ8); experiment: steroid-induced GRE reporter decrease in yeast – S. cerevisiae, luminescence, Hsp90 inhibitor project, dose response (AID 2400); type: functional, cell-based;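 also: beta-galactosidase luminescence from glucocorticoid response element reporter as proxy for Hsp90 function; inhibitor potency where signal loss means Hsp90 inhibition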
[5] = NIH-3T3 fibroblast cytotoxicity, dose response, cytotoxicity control, cell-based, fluorescence, Alamar Blue, secondary assay (AID 2327); type: functional;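 also: NIH-3T3 mouse fibroblasts cultured with fluconazole at 8 µg/mL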
[6] = fluconazole-exposed Candida albicans growth modulators – fluorescence, retest, confirmation (AID 2467); type: functional, cell-based
[7] = molecular target: T2, Oxysterols receptor LXR-beta (Homo sapiens, UniProt P55055); experiment: LXR agonists, Gal4 luciferase reporter, dose response, counter-screen for ssDAF-12 agonist project, cell-based, luminescence, HEK293, S. stercoralis campaign (AID 720737); type: functional; conditions: read-out: IC50 (the source's name)
T2 sequence (P55055 whole entry): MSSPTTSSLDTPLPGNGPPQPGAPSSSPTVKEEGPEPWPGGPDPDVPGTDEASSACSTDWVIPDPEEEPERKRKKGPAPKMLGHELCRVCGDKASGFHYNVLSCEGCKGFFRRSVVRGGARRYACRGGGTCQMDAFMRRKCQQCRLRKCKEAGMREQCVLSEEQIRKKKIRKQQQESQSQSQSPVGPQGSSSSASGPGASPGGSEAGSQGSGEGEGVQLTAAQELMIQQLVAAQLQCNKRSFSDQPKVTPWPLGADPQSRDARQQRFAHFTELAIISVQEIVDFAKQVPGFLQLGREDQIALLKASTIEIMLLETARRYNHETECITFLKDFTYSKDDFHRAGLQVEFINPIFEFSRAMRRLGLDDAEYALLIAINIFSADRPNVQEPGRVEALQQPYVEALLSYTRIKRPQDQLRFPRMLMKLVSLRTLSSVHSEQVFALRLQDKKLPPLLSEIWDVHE

Cytochrome P450 2D6 = Cytochrome P450 2D6 (Homo sapiens, UniProt P10635);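 also: CYP2D6 member of a cytochrome P450 panel assay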
fMet-Leu-Phe receptor = fMet-Leu-Phe receptor (Homo sapiens, UniProt P21462); experiment: formyl peptide receptor binders – dose response (AID 519); type: functional
[8] = molecular target: T3, Corticotropin-releasing factor receptor 2/Corticotropin-releasing factor-binding protein (Homo sapiens, UniProt P24387+Q13324); experiment: activators of CRF receptor 2 with binding protein – uHTS hits, confirmation (AID 602473); type: functional; conditions: read-out: EC50_Mean
T3 sequence (Q13324 whole entry): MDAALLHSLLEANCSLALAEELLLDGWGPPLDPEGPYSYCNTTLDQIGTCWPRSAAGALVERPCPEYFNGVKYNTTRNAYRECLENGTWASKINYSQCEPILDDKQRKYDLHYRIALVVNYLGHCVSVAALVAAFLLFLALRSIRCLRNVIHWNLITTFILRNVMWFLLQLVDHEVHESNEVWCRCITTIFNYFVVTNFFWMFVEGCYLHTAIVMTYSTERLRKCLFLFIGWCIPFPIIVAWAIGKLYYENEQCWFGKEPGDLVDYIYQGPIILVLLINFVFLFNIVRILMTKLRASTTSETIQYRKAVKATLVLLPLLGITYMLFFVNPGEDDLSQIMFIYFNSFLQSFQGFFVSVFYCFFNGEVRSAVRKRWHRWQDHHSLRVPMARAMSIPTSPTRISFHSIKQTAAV
T3 sequence (P24387 whole entry): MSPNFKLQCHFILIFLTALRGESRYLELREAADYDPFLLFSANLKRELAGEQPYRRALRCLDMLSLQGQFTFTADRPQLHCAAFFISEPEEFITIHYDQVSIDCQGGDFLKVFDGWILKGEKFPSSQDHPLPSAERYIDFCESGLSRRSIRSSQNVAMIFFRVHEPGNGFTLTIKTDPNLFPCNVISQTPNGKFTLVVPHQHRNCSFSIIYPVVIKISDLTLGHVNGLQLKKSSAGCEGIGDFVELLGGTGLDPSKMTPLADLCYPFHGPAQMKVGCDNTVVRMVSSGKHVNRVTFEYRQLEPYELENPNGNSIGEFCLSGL

[9] = molecular target: T4, Voltage-gated N-type calcium channel alpha-1B subunit/Amyloid beta A4 precursor protein-binding family A member 1 (Homo sapiens, UniProt Q00975+Q02410); type: protein assay
Caspase-6 = Caspase-6 (Homo sapiens, UniProt P55212); experiment: inhibition of CASP6 peptide cleavage – biochemical, VEID-R110 fluorescence, cherry-pick, dose response (AID 720632)
[10] = molecular target: NAD-dependent protein deacylase sirtuin-5, mitochondrial (Homo sapiens, UniProt Q9NXA8); experiment: sirtuin-5 deacylation blockers, concentration series – biochemical, fluorescence imaging, cherry-pick, set 5, dose response (AID 720591);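 also: desuccinylation of succinyl peptide AMC substrate read as fluorescence after trypsin release; potency of inhibitors that lower fluorescence and may act on trypsin instead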
[11] = molecular target: T3, Corticotropin-releasing factor receptor 2/Corticotropin-releasing factor-binding protein; experiment: Dose Response confirmation of uHTS hits for small molecule antagonists of the CRF-binding protein and CRF-R2 receptor complex.; type: functional; conditions: read-out: IC50_Mean
[12] = molecular target: T4, Voltage-gated N-type calcium channel alpha-1B subunit/Amyloid beta A4 precursor protein-binding family A member 1; type: protein assay; remark: listed apart in the source
cells [13] = conditions: HEK293
[14] = molecular target: 1-phosphatidylinositol 4,5-bisphosphate phosphodiesterase gamma-1 (Homo sapiens, UniProt P19174); experiment: Counterscreen for inhibitors of phospholipase C isozymes (PLC-B3): Fluorescence-based biochemical high throughput dose response assay to identify inhibitors of phospholipase C isozymes (PLC-gamma1).
[15] = molecular target: 1-phosphatidylinositol 4,5-bisphosphate phosphodiesterase beta-3 (Homo sapiens, UniProt Q01970); experiment: Fluorescence-based biochemical high throughput dose response assay to identify inhibitors of phospholipase C isozymes (PLC-B3).
[16] = molecular target: T2, Oxysterols receptor LXR-beta; type: functional, cell-based
Major prion protein = Major prion protein (Homo sapiens, UniProt P04156); type: functional, cell-based
cells [17] = experiment: cells
Cytochrome P450 1A2 = molecular target: T5, Cytochrome P450 1A2 (Homo sapiens, UniProt P05177);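 also: PubChem cytochrome P450 panel assay, CYP1A2 panel member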
T5 sequence (P05177 whole entry): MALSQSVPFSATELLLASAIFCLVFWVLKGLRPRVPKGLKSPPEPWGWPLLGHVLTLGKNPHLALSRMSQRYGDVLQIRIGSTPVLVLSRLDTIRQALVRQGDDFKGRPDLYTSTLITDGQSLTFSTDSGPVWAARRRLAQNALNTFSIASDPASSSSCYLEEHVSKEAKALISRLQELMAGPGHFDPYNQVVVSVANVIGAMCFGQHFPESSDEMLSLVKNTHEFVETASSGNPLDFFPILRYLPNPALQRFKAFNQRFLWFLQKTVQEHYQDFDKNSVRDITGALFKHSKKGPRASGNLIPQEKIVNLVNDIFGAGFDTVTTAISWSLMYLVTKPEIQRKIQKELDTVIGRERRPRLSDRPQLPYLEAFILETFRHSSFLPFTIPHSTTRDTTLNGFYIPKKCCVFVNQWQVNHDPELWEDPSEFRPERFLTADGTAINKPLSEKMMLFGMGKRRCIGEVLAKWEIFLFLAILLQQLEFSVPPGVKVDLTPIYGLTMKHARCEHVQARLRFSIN

Cytochrome P450 2C9 = Cytochrome P450 2C9 (Homo sapiens, UniProt P11712)
[18] = molecular target: RNA-editing ligase 1, mitochondrial (Trypanosoma brucei brucei, UniProt P86926); experiment: inhibition of trypanosome RNA editing ligase – biochemical, fluorescence, Trypanosoma brucei, dose response (AID 1117295); type: functional
[19] = Dd2 malaria parasite growth inhibition potency – SYBR Green, dry powder samples, dose response (AID 1159566); type: functional, cell-based;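 also: potency for growth inhibition with lower SYBR green DNA signal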
[20] = growth inhibition of PfATP4-mutant resistant parasites – NITD609-resistant line, SYBR Green, dry powder, dose response (AID 1159571); type: functional, cell-based;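 also: parasites synchronized at ring stage by sorbitol before testing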
[21] = P. falciparum Dd2 growth inhibitors, dose response, SYBR Green, cherry-picked samples (AID 1159567); type: functional, cell-based
[22] = toxicity to human HepG2 hepatoma cells – cell-based, plate reader, dry powder samples, cytotoxicity control, dose response (AID 1159569); type: functional;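 also: inhibitor potency with signal falling toward the positive control level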
[23] = growth inhibition of yeast DHODH-expressing 3D7 parasites – SYBR Green, dry powder samples, dose response (AID 1159570); type: functional, cell-based;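 also: parasite growth measured after 72 hours of compound exposure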

## Cc1ccc(S(=O)(=O)N2CCCCC2C(=O)O)cc1 (stereo unspecified)
[1]
  AC50: 17.6 µM (active)

## CC1CCCN(C(=O)CN2CCN(C(=O)c3ccco3)CC2)C1 (stereo unspecified)
Protein Tat
  IC50: > 100 µM (active)

## Cc1ccc(-n2nc(C)c3c(C)cc(O)nc32)cc1
[2]
  IC50: > 67.5 µM (inactive)
[3]
  EC50: > 180 µM (inactive)
[4]
  EC50: > 150 µM (inactive)
[5]
  EC50: > 150 µM (inactive)
[6]
  EC50: 1.54 µM (active)
[7]
  EC50: > 67.5 µM (inactive)

## O=c1oc(-c2cc3ccccc3o2)nc2sc3c(c12)CCCC3
[2]
  IC50: > 67.5 µM (inactive)
[7]
  EC50: > 67.5 µM (inactive)

## CCOC(=O)c1ccc(NC(=O)Nc2ccc3c4c(cccc24)C(=O)N3CC)cc1
Cytochrome P450 2D6
  AC50: 17.8 µM (inconclusive)
fMet-Leu-Phe receptor
  Ki: > 66.7 µM (inactive)

## COc1cc2c(cc1OC)-c1cc(Nc3ccc(C(=O)O)cc3)nc(=O)n1CC2
[8]
  EC50: > 53 µM (inactive)
[9]
  IC50: 17.6 µM (active)
Caspase-6
  AC50: 28.9 µM (active)
[10]
  AC50: 4.29 µM (active)
[11]
  IC50: > 47.1 µM (inactive)
[12]
  IC50: > 50 µM (inactive)

## CCn1cc(C(=O)NC2CCC(C)CC2)c(=O)c2cc(S(=O)(=O)N3CCCCC3)ccc21 (stereo unspecified)
fMet-Leu-Phe receptor
  Ki: > 66.7 µM (inactive)

## COc1cc(/C=C(\C#N)C(=O)NC(C)C)cc(Cl)c1O
Cells [13]
  AC50: 50.3 µM (active)

## Cc1cc(NC(=O)c2ccc3c(c2)OCO3)ccc1NC(=O)c1ccccc1
[14]
  IC50: > 122 µM (inactive)
[15]
  IC50: > 122 µM (inactive)

## Brc1ccc(-c2noc(-c3ccccn3)n2)o1
[16]
  EC50: > 67.5 µM (inactive)

## Cc1ccc(NS(=O)(=O)c2cc(C(=O)NCc3ccccn3)ccc2Cl)cc1C
Major prion protein
  IC50: 13 µM (inactive)
Cells [17]
  IC50: > 138 µM (inactive)

## O=C(C[S+]([O-])c1cccc(Cl)c1)Nc1ccccc1Cl (stereo unspecified)
Cytochrome P450 1A2
  AC50: 15.8 µM (inconclusive)
[14]
  IC50: > 122 µM (inactive)
Cytochrome P450 2C9
  AC50: inconclusive
[15]
  IC50: > 122 µM (inactive)

## COC(=O)C1=C(C)N(C)C(NCc2ccccc2C(F)(F)F)=NC1c1cccc(F)c1 (stereo unspecified)
[18]
  IC50: > 96.6 µM (inactive)

## C#CCOCCOCCOCCNc1nc(N2CCN(C(=O)[C@H](CCCCN)n3cc([C@@H](N)C(C)CC)nn3)CC2)nc(N2CCN(C(=O)[C@H](CCCCN)n3cc([C@@H](N)C(C)CC)nn3)CC2)n1 (stereo partly specified)
[18]
  IC50: > 96.6 µM (inactive)

## COc1ccc(C#Cc2ccc([C@@H]3[C@@H](CO)N4C(=O)CN(C(=O)c5ccccc5)C[C@H]34)cc2)cc1
[19]
  AC50: 1.63 µM (active)
[20]
  AC50: 1.35 µM (active)
[21]
  AC50: 2.48 µM (active)
[22]
  AC50: 33.4 µM (active)
[23]
  AC50: 1.99 µM (active)
